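Cells were grown in 96-well plates and exposed to each compound for 48 hours at five concentrations; endpoints were interpolated linearly between bracketing concentrations, or set to the highest concentration if not reached. TGI: total growth inhibition.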
How the values were obtained:
Test in all cases: NCI tumour cell line growth inhibition, 48 h
U251 CNS = tested on: U251 CNS
KM20L2 colon = tested on: KM20L2 colon
COLO 205 colon = tested on: COLO 205 colon
K-562 leukemia = tested on: K-562 leukemia
OVCAR-3 ovarian = tested on: OVCAR-3 ovarian
RXF 393 renal = tested on: RXF 393 renal
SNB-75 CNS = tested on: SNB-75 CNS
HCT-15 colon = tested on: HCT-15 colon
SNB-78 CNS = tested on: SNB-78 CNS
A498 renal = tested on: A498 renal
LXFL 529 NSCLC = tested on: LXFL 529 NSCLC
OVCAR-5 ovarian = tested on: OVCAR-5 ovarian
CCRF-CEM leukemia = tested on: CCRF-CEM leukemia
LOX IMVI melanoma = tested on: LOX IMVI melanoma
UO-31 renal = tested on: UO-31 renal
HCT-116 colon = tested on: HCT-116 colon
SK-MEL-5 melanoma = tested on: SK-MEL-5 melanoma
TK-10 renal = tested on: TK-10 renal
MALME-3M melanoma = tested on: MALME-3M melanoma
SK-MEL-2 melanoma = tested on: SK-MEL-2 melanoma
RPMI-8226 leukemia = tested on: RPMI-8226 leukemia
SW-620 colon = tested on: SW-620 colon
EKVX NSCLC = tested on: EKVX NSCLC
XF 498 CNS = tested on: XF 498 CNS
KM12 colon = tested on: KM12 colon
MOLT-4 leukemia = tested on: MOLT-4 leukemia
SF-268 CNS = tested on: SF-268 CNS
M19-MEL melanoma = tested on: M19-MEL melanoma
CAKI-1 renal = tested on: CAKI-1 renal
ACHN renal = tested on: ACHN renal
SK-OV-3 ovarian = tested on: SK-OV-3 ovarian
A549 NSCLC = tested on: A549 NSCLC
786-0 renal = tested on: 786-0 renal
OVCAR-8 ovarian = tested on: OVCAR-8 ovarian
UACC-62 melanoma = tested on: UACC-62 melanoma
DMS 114 small cell lung = tested on: DMS 114 small cell lung
SN12C renal = tested on: SN12C renal
NCI-H23 lung = tested on: NCI-H23 lung
SK-MEL-28 melanoma = tested on: SK-MEL-28 melanoma
NCI-H522 lung = tested on: NCI-H522 lung
SNB-19 CNS = tested on: SNB-19 CNS
SF-539 CNS = tested on: SF-539 CNS
IGROV1 ovarian = tested on: IGROV1 ovarian
OVCAR-4 ovarian = tested on: OVCAR-4 ovarian
HOP-18 NSCLC = tested on: HOP-18 NSCLC
M14 melanoma = tested on: M14 melanoma
DMS 273 small cell lung = tested on: DMS 273 small cell lung
HT29 colon = tested on: HT29 colon
UACC-257 melanoma = tested on: UACC-257 melanoma
NCI-H460 lung = tested on: NCI-H460 lung
DLD-1 colon = tested on: DLD-1 colon
HL-60(TB) leukemia = tested on: HL-60(TB) leukemia
NCI-H226 lung = tested on: NCI-H226 lung
HOP-92 NSCLC = tested on: HOP-92 NSCLC
HOP-62 NSCLC = tested on: HOP-62 NSCLC
HCC-2998 colon = tested on: HCC-2998 colon
SF-295 CNS = tested on: SF-295 CNS

Measured: TGI

COc1ccc(-c2cc(C(=O)Nc3ccc(C)c(C)c3)nc(NC#N)n2)cc1
> 100 µM: U251 CNS | KM20L2 colon | COLO 205 colon | K-562 leukemia | OVCAR-3 ovarian | RXF 393 renal | SNB-75 CNS | HCT-15 colon | SNB-78 CNS | A498 renal | LXFL 529 NSCLC | OVCAR-5 ovarian | CCRF-CEM leukemia | LOX IMVI melanoma | UO-31 renal | HCT-116 colon | SK-MEL-5 melanoma | TK-10 renal | MALME-3M melanoma | SK-MEL-2 melanoma | RPMI-8226 leukemia | SW-620 colon | EKVX NSCLC | XF 498 CNS | KM12 colon | MOLT-4 leukemia | SF-268 CNS | M19-MEL melanoma | CAKI-1 renal | ACHN renal | SK-OV-3 ovarian | A549 NSCLC | 786-0 renal | OVCAR-8 ovarian | UACC-62 melanoma | DMS 114 small cell lung | SN12C renal | NCI-H23 lung | SK-MEL-28 melanoma | NCI-H522 lung | SNB-19 CNS | SF-539 CNS | IGROV1 ovarian | OVCAR-4 ovarian | HOP-18 NSCLC | M14 melanoma | DMS 273 small cell lung | HT29 colon | UACC-257 melanoma | NCI-H460 lung | DLD-1 colon

O=c1[nH]cc(F)c(=O)n1C1OC(CO)C(O)C1O (configuration not stated)
> 100 µM: U251 CNS | KM20L2 colon | HL-60(TB) leukemia | COLO 205 colon | K-562 leukemia | OVCAR-3 ovarian | RXF 393 renal | NCI-H226 lung | SNB-75 CNS | HCT-15 colon | SNB-78 CNS | LXFL 529 NSCLC | OVCAR-5 ovarian | CCRF-CEM leukemia | LOX IMVI melanoma | UO-31 renal | SK-MEL-5 melanoma | TK-10 renal | MALME-3M melanoma | SK-MEL-2 melanoma | HOP-92 NSCLC | HOP-62 NSCLC | RPMI-8226 leukemia | SW-620 colon | EKVX NSCLC | XF 498 CNS | KM12 colon | MOLT-4 leukemia | SF-268 CNS | CAKI-1 renal | ACHN renal | SK-OV-3 ovarian | A549 NSCLC | 786-0 renal | OVCAR-8 ovarian | DMS 114 small cell lung | SN12C renal | NCI-H23 lung | SK-MEL-28 melanoma | NCI-H522 lung | SNB-19 CNS | OVCAR-4 ovarian | HOP-18 NSCLC | M14 melanoma | DMS 273 small cell lung | HCC-2998 colon | HT29 colon | UACC-257 melanoma | NCI-H460 lung | SF-295 CNS | DLD-1 colon
